Patent US20120021432A1, “Phosphorylated NF45 Biomarkers, Antibodies And Methods Of Using Same” (ArQule, Inc., priority 2010, published 2012)

What was measured:
pNF45 (T388) [1] = assay: Effect of ATM and DNA-PK inhibitors on NF45 phosphorylation by β-Lapachone in MIA PaCa-2 cells (Western blot); format: cell-based, human; conditions: then β-Lapachone 4 μM 8 hrs in presence of inhibitor
Text: (§1) Immunoprecipitation and Western Blot Analysis: Cell lysate was used for immunoprecipitation using anti-NF90 antibody (#612154, BD Biosciences) or IgG as negative control. Samples then were separated into two equal potions: one blotted with anti-pNF45(T388)(#438) and another for anti-NF45 (K-22) (sc-133817, Santa Cruz Biotechnology). Other antibodies used in this study are pATM(S1981)(# 200-301-400, Rockland), DNA-PKcs (MA-370-P0, Thermo Scientific), ATM(2C1) (GTX70103, GeneTex), DNA-PK (S2506) (ab18192, Abcam), DNA-PK (T2609) (ab18356, Abcam), pCHK2(T68) (#2661, CST), b-actin (#5441, Sigma), g-H2AX (A300-081A, Bethyl).
(§2) β-Lapachone-induced phosphorylation of NF45 is ATM- and DNA-PK-dependent: MIA PaCa-2 cells were pretreated with or without ATM inhibitor KU55933 (10 μM), or DNA-PK inhibitor NU7026 (20 μM), for 1 hr and then treated with β-Lapachone (4 μM) (“Agent A”) for 8 hrs in the presence of inhibitors. Western blot analysis was performed using specific antibodies.

pNF45 (T388) [2] = assay: Western blot analysis for pNF45 (T388) in MIA PaCa-2 cells; format: cell-based, human; conditions: for time course of NF45 phosphorylation / induction of NF45 phosphorylation, pNF45 (T388): MIA Paca-2 cells; for time course of NF45 phosphorylation: up to 24 hrs; for induction of NF45 phosphorylation, pNF45 (T388): various times
Text: Cell culture and chemicals: MIA PaCa-2 cells were maintained in DMEM medium supplemented with 10% FBS. β-Lapachone and (S)-1′-(3-(4-(tert-butyl)phenoxy)-2-hydroxypropyl)-2H-spiro[naphtho[1,2-b][1,4]oxathiine-3,4′-piperidine]-5,6-dione were synthesized by ArQule, Inc. Doxorubicin, cisplatin, camptohethcin and NU7026 (DNA-PK inhibitor) were purchased from Sigma. KU55933 (ATM inhibitor) was purchased from EMD Chemicals.
Antibody generation: Anti-pNF45 (T388) antibody was generated by Covance (Norwood, Mass.). Briefly, a peptide corresponding to amino acids 383 to 390 (EESME-T-QE) (SEQ ID NO: 2) of NF45 was phosphorylated at threonine 388 in vitro and then conjugated with KHL. Polyclonal antibody was produced from rabbit and passed through affinity column with unphosphorylated peptide and then purified through the column with phosphorylated peptide. Two batches of antibody were obtained: #438 and #439. All the experiments were carried out using #438. Monoclonal antibody are generated by utilizing SEQ ID NO:2 and the hybridoma method known in the art and described herein.
as §1
Knockdown of NF45: Cells were transfected with NF45 On-target plus SMART pool (L-017599-00-0005, Thermo Fisher) or On-Target plus Control siRNA (200 nM, #D-001810-0X, Thermo Fisher) using Oligofectamine (#12252-011, Invitrogen). Cells were used for further examination after 48 hr post transfection.
Threonine Phosphorylation of pNF45 in MIA PaCa-2 Cells is Responsive to β-Lapachone: MIA PaCa-2 cells were treated with or without β-Lapachone (4 μM) (“Agent A”) for 8 hrs and cell lysate was subjected to western blot analysis for the detection of pNF45(T388). […] Samples were then separated into two portions: one for detection of pNF45 (T388) and another for detection of total NF45. C. Cells were transfected with NF45 siRNA or control siRNA and then treated with or without β-Lapachone (4 μM) for 8 hrs.
Time- and concentration-dependent pNF45 (T388) in response to β-Lapachone in MIA PaCa-2 cells: MIA PaCa-2 cells were treated with β-Lapachone (4 μM) (“Agent A”) for various times (A), or for 2 hrs at various concentrations of β-Lapachone (B). Western blot analysis was performed for the detection of pNF45 (T388) and NF45. […] Early induction of pNF45 (T388) was observed within 1 hr and reached peak level between 4 to 8 hrs.
Effect of DNA damage agents on phosphorylation of NF45: To determine whether other DNA damage agents are able to regulate NF45, we treated MIA Paca-2 cells with or without doxorubicin (1 μM), cisplatin (10 μM) or camptothecin (10 μM) for various times. pNF45 (T388) was examined by western blot analysis.

pNF45 (T388) [3] = assay: Immunofluorescence staining of pNF45 (T388) in MIA PaCa-2 cells; format: cell-based, human
Method: Immunofluorescent Staining: Cells were seeded in 8-well chamber slides and treated with or without β-Lapachone for various time periods and then fixed with 4% paraformaldhyde. pNF45 was detected using anti-pNF45(T388) antibody, and NF45 using anti-NF45 (K-22) antibody. Slides were mounted using Vectashield Mounting Medium with DAPI (#H-1200, Vector Laboratories) and images were obtained using Zeiss fluorescence microscope.
Immunofluorescence staining pNF45 (T388) in response to β-Lapachone: MIA PaCa-2 cells were plated in 8-well chamber slides and treated with β-Lapachone (4 μM) (“Agent A”) for various times. Cells were fixed and stained for either pNF45 (A) or NF45 (B).

ATM = assay: Western blot, activation of ATM in β-Lapachone treated cells; format: cell-based, human; conditions: MIA PaCa-2 cells, coincides with induction of pNF45 (T388)
Text: as §1, §2

DNA-PK = assay: Western blot, activation of DNA-PK in β-Lapachone treated cells; format: cell-based, human; conditions: MIA PaCa-2 cells, coincides with induction of pNF45 (T388)
Text: as §1, §2

CHK2 = CHK2 phosphorylation in treated cells; format: cell-based
Text: as §1

g-H2AX = g-H2AX elevation in treated cells; format: cell-based
Text: as §1

DNA topoisomerase II = conditions: cited from earlier work
[4] = tested on: human prostate and promyelocytic leukemia cancer cell lines; conditions: cited from earlier work
[5] = tested on: Human breast and ovary carcinoma; conditions: cited from earlier work
[6] = tested on: human ovarian cancer, human prostate cancer, human breast cancer, human multiple myeloma; conditions: single agent, xenotransplant mouse models; cited from earlier work
[7] = cited from earlier work
[8] = tested on: cancer cells from a variety of tissues; normal cells from these tissues; conditions: cited from earlier work

Compound: O=c1cc(-c2cccc3c2Sc2ccccc2S3)oc(N2CCOCC2)c1 [KU55933]
- effect of ATM inhibitor on β-Lapachone-induced phosphorylation of NF45 (pNF45 (T388) [1]; inhibitor 10 μM pretreated 1 hr): phosphorylation of NF45 induced by β-Lapachone is ATM and DNA-PK dependent

Compound: O=c1cc(N2CCOCC2)oc2c1ccc1ccccc12 [NU7026]
- effect of DNA-PK inhibitor on β-Lapachone-induced phosphorylation of NF45 (pNF45 (T388) [1]; inhibitor 20 μM pretreated 1 hr): phosphorylation of NF45 induced by β-Lapachone is ATM and DNA-PK dependent

Compound: CC[C@@]1(O)C(=O)OCc2c1cc1n(c2=O)Cc2cc3ccccc3nc2-1 [camptothecin]
- time course of NF45 phosphorylation (pNF45 (T388) [2]; 10 μM): steadily increased up to 24 hrs
- induction of NF45 phosphorylation, pNF45 (T388) (pNF45 (T388) [2]; 10 μM): induced NF45 phosphorylation

Compound: N.N.[Cl][Pt][Cl] [cisplatin]
- induction of NF45 phosphorylation, pNF45 (T388) (pNF45 (T388) [2]; 10 μM): not cisplatin induced NF45 phosphorylation

Compound: COc1cccc2c1C(=O)c1c(O)c3c(c(O)c1C2=O)C[C@@](O)(C(=O)CO)C[C@@H]3O[C@H]1C[C@H](N)[C@H](O)[C@H](C)O1 [doxorubicin]
- time course of NF45 phosphorylation (pNF45 (T388) [2]; 1 μM): steadily increased up to 24 hrs
- induction of NF45 phosphorylation, pNF45 (T388) (pNF45 (T388) [2]; 1 μM): induced NF45 phosphorylation

Compound: CC1(C)CCC2=C(O1)c1ccccc1C(=O)C2=O [β-Lapachone, 3,4-dihydro-2,2-dimethyl-2H-naphtho[1,2-b]pyran-5,6-dione]
- time of early induction of pNF45 (T388) (pNF45 (T388) [2]; MIA PaCa-2 cells, 4 μM): ≤ 1 hr
- time and concentration dependence of pNF45 (T388) induction (pNF45 (T388) [2]; MIA PaCa-2 cells, 4 μM for various times, or 2 hrs at various concentrations): time- and concentration-dependent manner
- induction of pNF45 (T388) (pNF45 (T388) [2]; MIA PaCa-2 cells, 4 μM, 8 hrs): induced pNF45 (T388)
- cellular location of induced pNF45 (T388) (pNF45 (T388) [3]; MIA PaCa-2 cells, 4 μM): primarily located in nuclei
- time of induction of pNF45 (T388), immunofluorescence (pNF45 (T388) [3]; MIA PaCa-2 cells, 4 μM, various times): ≤ 2 hrs
- pNF45 (T388) levels, immunofluorescence staining (pNF45 (T388) [3]; β-Lapachone treated cells, pNF45 (T388) antibody): significant increase
- activation of ATM (ATM): activation
- activation of DNA-PK (DNA-PK): activation
- CHK2 phosphorylation (CHK2): CHK2 phosphorylation
- g-H2AX level (g-H2AX): g-H2AX elevation
- inhibition of DNA topoisomerase II (DNA topoisomerase II): inhibits DNA topoisomerase II
- induction of cell death [4]: induces cell death with characteristics of apoptosis
- cytotoxic effect [5]: showed sensitivity of the cytotoxic effect of β-Lapachone without signs of apoptosis
- number of tumors, tumor size, survival time [6]: decrease the number of tumors, reduce tumor size, or increase the survival time, or a combination of these
- water solubility [7]: non-water soluble
- cell death in cancer cells versus normal cells [8]: induces cell death in cancer cells from a variety of tissues without causing death of normal cells from these tissues
